The source of these data is patent publication US10975056B2 (GlaxoSmithKline Intellectual Property Development Limited, priority 2016, dated 2021).

Each structure is given as a SMILES string. Structures can show the parent of a compound that is named as a salt. Where two headings read alike, the source gives them in different places.

Experiment [1] has as its target DNMT1 (Homo sapiens, UniProt P26358). The experiment can be described thus: DNMT1 biochemical activity, breaklight assay and/or SPA assay.
Experiment [2] relates to erythroid progenitor cells (EPCs). In words: Fetal hemoglobin (HbF) ELISA in day 7 erythroid progenitor cells.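 For all read-outs here: for fetal hemoglobin induction normalized to vehicle-treated cells.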 The class given is cell-based, human. Particulars: HbF ELISA, day 7 EPCs, 5 days; for EC50: Homo sapiens, Erythroid progenitor cell, read-out: EPC ELISA (pEC50 category) (converted). In outline: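 Read-out was OD450 from an HRP/TMB sandwich ELISA on lysates, normalized to DMSO-only control wells. Thawed day 7 EPCs from human marrow CD34+ cells had been treated for 5 days at 37° C with Compound A, 22 concentrations […].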

Setting [3] is: binned activity in either the breaklight or the SPA assay, read-out: DNMT1 BioChemical (pIC50 category) (converted).
Where [4] appears, read: binned activity in either the breaklight or the SPA assay.
Setting [5] is: breaklight assay and/or SPA assay, repeated experimental runs, read-out: average pIC50 against DNMT1 (converted).

Sequence of DNMT1 (P26358 whole entry, looked up): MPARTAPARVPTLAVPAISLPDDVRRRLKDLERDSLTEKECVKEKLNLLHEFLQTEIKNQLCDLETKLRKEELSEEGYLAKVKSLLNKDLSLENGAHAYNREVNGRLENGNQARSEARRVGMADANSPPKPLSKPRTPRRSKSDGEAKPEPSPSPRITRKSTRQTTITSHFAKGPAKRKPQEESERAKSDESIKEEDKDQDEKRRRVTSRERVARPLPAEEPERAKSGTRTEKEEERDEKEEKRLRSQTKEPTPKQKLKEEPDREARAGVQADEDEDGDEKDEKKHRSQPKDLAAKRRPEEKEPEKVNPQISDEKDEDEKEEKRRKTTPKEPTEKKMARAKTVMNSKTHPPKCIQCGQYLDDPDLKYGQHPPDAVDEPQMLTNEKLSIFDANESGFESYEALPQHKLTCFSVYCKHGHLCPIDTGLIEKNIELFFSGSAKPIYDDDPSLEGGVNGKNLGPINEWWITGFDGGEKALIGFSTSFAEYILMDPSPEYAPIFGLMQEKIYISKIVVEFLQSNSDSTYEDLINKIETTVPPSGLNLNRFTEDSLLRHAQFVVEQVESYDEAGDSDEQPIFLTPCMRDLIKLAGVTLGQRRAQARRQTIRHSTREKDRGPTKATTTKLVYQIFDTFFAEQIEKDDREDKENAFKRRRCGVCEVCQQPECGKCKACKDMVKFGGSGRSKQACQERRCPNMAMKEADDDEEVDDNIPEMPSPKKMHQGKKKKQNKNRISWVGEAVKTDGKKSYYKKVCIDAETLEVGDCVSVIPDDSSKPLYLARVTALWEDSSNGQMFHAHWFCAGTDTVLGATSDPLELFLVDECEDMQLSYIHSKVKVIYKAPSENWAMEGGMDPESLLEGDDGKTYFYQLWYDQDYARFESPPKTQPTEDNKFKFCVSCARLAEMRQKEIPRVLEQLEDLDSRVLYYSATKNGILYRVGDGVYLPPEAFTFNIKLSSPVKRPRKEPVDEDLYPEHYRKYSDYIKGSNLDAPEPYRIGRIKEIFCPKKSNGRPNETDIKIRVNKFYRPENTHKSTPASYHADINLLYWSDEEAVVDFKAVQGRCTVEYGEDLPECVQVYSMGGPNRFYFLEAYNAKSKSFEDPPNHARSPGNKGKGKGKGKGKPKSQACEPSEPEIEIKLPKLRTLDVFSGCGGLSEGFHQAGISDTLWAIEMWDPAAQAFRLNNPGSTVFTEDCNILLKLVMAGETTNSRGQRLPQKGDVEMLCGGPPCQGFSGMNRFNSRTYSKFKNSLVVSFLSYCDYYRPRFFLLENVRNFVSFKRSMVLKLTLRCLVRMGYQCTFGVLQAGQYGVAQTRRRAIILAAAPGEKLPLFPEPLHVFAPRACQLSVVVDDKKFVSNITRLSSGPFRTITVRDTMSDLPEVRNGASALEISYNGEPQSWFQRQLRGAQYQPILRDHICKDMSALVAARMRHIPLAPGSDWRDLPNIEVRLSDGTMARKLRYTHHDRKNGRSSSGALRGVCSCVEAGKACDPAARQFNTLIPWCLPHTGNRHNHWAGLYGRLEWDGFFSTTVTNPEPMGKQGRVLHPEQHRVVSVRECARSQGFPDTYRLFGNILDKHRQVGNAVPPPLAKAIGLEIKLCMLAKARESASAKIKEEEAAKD

As to `CCc1c(C#N)c(SC(C(N)=O)c2cccnc2)nc(N2CC[C@H](O)C2)c1C#N` (stereo partly drawn) [Example 181, 2-((3,5-Dicyano-4-ethyl-6-((S)-3-hydroxypyrrolidin-1-yl)pyridin-2-yl)thio)-2-(pyridin-3-yl)acetamide], the IC50 in experiment [1] (setting [3]) is 316 to 1000 nM. Moreover, the EC50 in experiment [2] is 1000 to 31600 nM.
For `CCc1c(C#N)c(S[C@@H](C(N)=O)c2ccccc2)nc(N2CC[C@@H](N)[C@H](O)C2)c1C#N` [Example 523, (R)-2-((6-((3R,4R)-4-amino-3-hydroxypiperidin-1-yl)-3,5-dicyano-4-ethylpyridin-2-yl)thio)-2-phenylacetamide 2,2,2-trifluoroacetate*], in experiment [1] (setting [4]), the “DNMT1 BioChemical (pIC50 category)” value is listed as “D (Category D: ≥6.5)”. The “average pIC50 against DNMT1” value in experiment [1] (breaklight assay and/or SPA assay, repeated experimental runs) is above 6.5. The IC50 in experiment [1] (setting [5]) is 79.4 nM. For the same compound, in experiment [2], the EC50 is below 316 nM.
Turning to `CCc1c(C#N)c(SCc2ccc(N(C)S(C)(=O)=O)cc2)nc(N2CCCC(CN(C)C)C2)c1C#N` (stereo not drawn) [Example 597, N-(4-(((3,5-dicyano-6-(3-((dimethylamino)methyl)piperidin-1-yl)-4-ethylpyridin-2-yl)thio)methyl)phenyl)-N-methylmethanesulfonamide], the “DNMT1 BioChemical (pIC50 category)” value in experiment [1] (setting [4]) is on record as “D (Category D: ≥6.5)”. Moreover, the EC50 in experiment [2] was below 316 nM.
Turning to `CCc1c(C#N)c(SCc2ccc(CNC(=O)C(C)C)cc2)nc(N2CCCN(C)CC2)c1C#N` [Example 88, N-(4-(((3,5-Dicyano-4-ethyl-6-(4-methyl-1,4-diazepan-1-yl)pyridin-2-yl)thio)methyl)benzyl)isobutyramide], the IC50 in experiment [1] (setting [3]) is 316 to 1000 nM. Further, the EC50 in experiment [2] is above 31600 nM.
The corresponding values for `CCc1c(C#N)c(SC(C(N)=O)c2cccc(F)n2)nc(N2CCCN(C)CC2)c1C#N` (stereo not drawn) [Example 206, 2-((3,5-Dicyano-4-ethyl-6-(4-methyl-1,4-diazepan-1-yl)pyridin-2-yl)thio)-2-(6-fluoropyridin-2-yl)acetamide] are 316 to 1000 nM and above 31600 nM.
For `CN(CC(N)=O)c1nc(SC(C(N)=O)c2ccccc2)c(C#N)c(C2CC2)c1C#N` (stereo not drawn) [Example 396, 2-((6-((2-Amino-2-oxoethyl)(methyl)amino)-3,5-dicyano-4-cyclopropylpyridin-2-yl)thio)-2-phenylacetamide] the same measures were 316 to 1000 nM and 1000 to 31600 nM.
For `CCc1c(C#N)c(SCc2ccc(CC(=O)NCCO)cc2)nc(N(C)C)c1C#N` [Example 291, 2-(4-(((3,5-Dicyano-6-(dimethylamino)-4-ethylpyridin-2-yl)thio)methyl)phenyl)-N-(2-hydroxyethyl)acetamide] the same measures were 316 to 1000 nM and 1000 to 31600 nM.
Compound `CCc1c(C#N)c(SC(C(N)=O)c2ccccc2)nc(N(C)C2CC3CCC(C2)N3)c1C#N` (stereo not drawn) [Example 62, 2-((6-(8-azabicyclo[3.2.1]octan-3-yl(methyl)amino)-3,5-dicyano-4-ethylpyridin-2-yl)thio)-2-phenylacetamide] showed an IC50 in experiment [1] (DNMT1 BioChemical (pIC50 category), binned activity in either the breaklight or the SPA assay) of 316 to 1000 nM. Also, the EC50 in experiment [2] was 316 to 1000 nM.
Turning to `CCc1c(C#N)c(SC(C(N)=O)c2ccccc2)nc(N(C)CC(=O)NCCn2cnnc2)c1C#N` (stereo not drawn) [Example 686, N-(2-(4H-1,2,4-triazol-4-yl)ethyl)-2-((6-((2-amino-2-oxo-1-phenylethyl)thio)-3,5-dicyano-4-ethylpyridin-2-yl)(methyl)amino)acetamide], the “DNMT1 BioChemical (pIC50 category)” value in experiment [1] (setting [4]) is reported as “D (Category D: ≥6.5)”. Further, the EC50 in experiment [2] is 1000 to 31600 nM.
On to `CCc1c(C#N)c(SC(C(N)=O)c2ccccc2)nc(N2CCC(NCCN)CC2)c1C#N` (stereo not drawn) [Example 645, 2-((6-(4-((2-aminoethyl)amino)piperidin-1-yl)-3,5-dicyano-4-ethylpyridin-2-yl)thio)-2-phenylacetamide dihydrochloride], for which the “DNMT1 BioChemical (pIC50 category)” value in experiment [1] (setting [4]) was “D (Category D: ≥6.5)”. Moreover, the EC50 in experiment [2] is 316 to 1000 nM.
For `CCc1c(C#N)c(SC(C(N)=O)c2ccccc2)nc(N2CCO[C@H](CN(CC)CC)C2)c1C#N` (stereo partly drawn) [Example 578, 2-((3,5-dicyano-6-((R)-2-((diethylamino)methyl)morpholino)-4-ethylpyridin-2-yl)thio)-2-phenylacetamide] the same measures were “D (Category D: ≥6.5)” and below 316 nM.
For `CCc1c(C#N)c(SC(C(N)=O)c2ccccc2)nc(N2CCC[C@H](NC)C2)c1C#N` (stereo partly drawn) [Example 607, 2-((3,5-dicyano-4-ethyl-6-((S)-3-(methylamino)piperidin-1-yl)pyridin-2-yl)thio)-2-phenylacetamide] the same measures were “D (Category D: ≥6.5)” and below 316 nM.
As to `CCc1c(C)c(N2CCC(N)CC2)nc(SC(C(N)=O)c2ccccc2)c1C#N` (stereo not drawn) [Example 376, 2-(6-(4-Aminopiperidin-1-yl)-3-cyano-4-ethyl-5-methylpyridin-2-ylthio)-2-phenylacetamide], the IC50 in experiment [1] (setting [3]) was 316 to 1000 nM. In addition, the EC50 in experiment [2] was 316 to 1000 nM.
On to `CCc1c(C#N)c(SCc2ccc(-c3ccncc3)cc2)nc(N2CCC(N3CCCC3)CC2)c1C#N` [Example 338, 4-Ethyl-2-((4-(pyridin-4-yl)benzyl)thio)-6-(4-(pyrrolidin-1-yl)piperidin-1-yl)pyridine-3,5-dicarbonitrile], for which the IC50 in experiment [1] (setting [3]) was 316 to 1000 nM. In addition, the EC50 in experiment [2] is above 31600 nM.
Consider `CCc1c(C#N)c(SC(C(N)=O)c2ccccc2)nc(N2CCN(Cc3cn[nH]c3)CC2)c1C#N` (stereo not drawn) [Example 187, 2-((6-(4-((1H-Pyrazol-4-yl)methyl)piperazin-1-yl)-3,5-dicyano-4-ethylpyridin-2-yl)thio)-2-phenylacetamide], for which, in experiment [1] (setting [3]), the IC50 is 316 to 1000 nM. In addition, in experiment [2], the EC50 was 1000 to 31600 nM.
Turning to `CCc1c(C#N)c(SC(C(N)=O)c2ccc(F)cn2)nc(N(C)C)c1C#N` (stereo not drawn) [Example 199], the “DNMT1 BioChemical (pIC50 category)” value in experiment [1] (setting [4]) is listed as “D (Category D: ≥6.5)”. In experiment [2], the EC50 is above 31600 nM.
For the compound `CCc1c(C#N)c(SCc2ccc3c(c2)CCN(C(C)=O)C3)nc(N(C)C)c1C#N` [Example 92, 2-(((2-Acetyl-1,2,3,4-tetrahydroisoquinolin-6-yl)methyl)thio)-6-(dimethylamino)-4-ethylpyridine-3,5-dicarbonitrile], the IC50 in experiment [1] (setting [3]) is 316 to 1000 nM; in experiment [1] (setting [5]), at least 1000 nM. In experiment [2], the EC50 was 1000 to 31600 nM.
`CCOc1c(C#N)c(C)nc(SC(C(N)=O)c2ccccc2)c1C#N` (stereo not drawn) [Example 342, 2-((3,5-Dicyano-4-ethoxy-6-methylpyridin-2-yl)thio)-2-phenylacetamide]: in experiment [1] (setting [3]), the IC50 was 316 to 1000 nM. For the same compound, the EC50 in experiment [2] was above 31600 nM.
For the compound `CCc1c(C#N)c(SC(C(N)=O)c2ccccc2)nc(N2CCN(Cc3cc[nH]c3)CC2)c1C#N` (stereo not drawn) [Example 182, 2-((6-(4-((1H-Pyrrol-3-yl)methyl)piperazin-1-yl)-3,5-dicyano-4-ethylpyridin-2-yl)thio)-2-phenylacetamide], in experiment [1] (setting [3]), the IC50 was 316 to 1000 nM. Besides, the EC50 in experiment [2] is 316 to 1000 nM.
Take `CCc1c(C#N)c(SC(C(N)=O)c2ccccc2)nc(N2CCN(Cc3ccncc3)CC2)c1C#N` (stereo not drawn) [Example 173, 2-((3,5-Dicyano-4-ethyl-6-(4-(pyridin-4-ylmethyl)piperazin-1-yl)pyridin-2-yl)thio)-2-phenylacetamide]: the IC50 in experiment [1] (setting [3]) is 316 to 1000 nM. Further, the EC50 in experiment [2] was 316 to 1000 nM.
As for `CCc1c(C#N)c(S[C@@H](C(N)=O)c2ccccc2)nc(N2CC[C@](O)(CN)C2)c1C#N` [Example 624, (R)-2-((6-((S)-3-(aminomethyl)-3-hydroxypyrrolidin-1-yl)-3,5-dicyano-4-ethylpyridin-2-yl)thio)-2-phenylacetamide], the “DNMT1 BioChemical (pIC50 category)” value in experiment [1] (setting [4]) is “D (Category D: ≥6.5)”. Besides, the “EPC ELISA (pEC50 category)” value in experiment [2] is listed as “B (Category B: 4.5 ≤ x < 6.0)”.
`CC(=O)NCc1ccc(CSc2nc(N3CCCN(C)CC3)c(C#N)c(-c3ccco3)c2C#N)cc1` [Example 414]: the IC50 in experiment [1] (setting [3]) was 316 to 1000 nM. Further, the EC50 in experiment [2] was 1000 to 31600 nM.
`CCc1c(C#N)c(SC(C(N)=O)c2ccccc2)nc(N2CCC(CN3CCCC3)CC2)c1C#N` (stereo not drawn) [Example 445, 2-((3,5-dicyano-4-ethyl-6-(4-(pyrrolidin-1-ylmethyl)piperidin-1-yl)pyridin-2-yl)thio)-2-phenylacetamide]: in experiment [1] (setting [4]), the “DNMT1 BioChemical (pIC50 category)” value was “D (Category D: ≥6.5)”. For the same compound, in experiment [2], the EC50 was below 316 nM.
The corresponding values for `CCc1c(C#N)c(SC(C(N)=O)c2ccccc2)nc(N(C)CC(=O)N2C[C@H](O)[C@@H](O)C2)c1C#N` (stereo partly drawn) [Example 660, 2-((3,5-dicyano-6-((2-((3S,4S)-3,4-dihydroxypyrrolidin-1-yl)-2-oxoethyl)(methyl)amino)-4-ethylpyridin-2-yl)thio)-2-phenylacetamide] are “D (Category D: ≥6.5)” and 1000 to 31600 nM.
In the case of `CCc1c(C#N)c(SC(C(N)=O)c2ccccc2)nc(N(C)CCOCCN)c1C#N` (stereo not drawn) [Example 628, 2-((6-((2-(2-aminoethoxy)ethyl)(methyl)amino)-3,5-dicyano-4-ethylpyridin-2-yl)thio)-2-phenylacetamide], in experiment [1] (setting [4]), the “DNMT1 BioChemical (pIC50 category)” value was “D (Category D: ≥6.5)”. In experiment [2], the EC50 was below 316 nM.
The corresponding values for `N#Cc1c(SC(C(N)=O)c2ccccc2)nc(N2CCC(O)C2)c(C#N)c1C1CC1` (stereo not drawn) [Example 369, 2-((3,5-Dicyano-4-cyclopropyl-6-(3-hydroxypyrrolidin-1-yl)pyridin-2-yl)thio)-2-phenylacetamide] are “D (Category D: ≥6.5)” and 1000 to 31600 nM.
Consider `CCc1c(C#N)c(SC(C(N)=O)c2ccccc2)nc(N2CCC(NCC(F)F)CC2)c1C#N` (stereo not drawn) [Example 554, 2-((3,5-dicyano-6-(4-((2,2-difluoroethyl)amino)piperidin-1-yl)-4-ethylpyridin-2-yl)thio)-2-phenylacetamide], for which the “DNMT1 BioChemical (pIC50 category)” value in experiment [1] (setting [4]) is “D (Category D: ≥6.5)”. In addition, the EC50 in experiment [2] was below 316 nM.
